Experimental data taken from paper PMC2196289 (The Journal of Experimental Medicine, 1997).

Target: T1, mouse LXA4R (lipoxin A4 receptor) (Mus musculus, UniProt O08790)
T1 sequence (O08790 1-351): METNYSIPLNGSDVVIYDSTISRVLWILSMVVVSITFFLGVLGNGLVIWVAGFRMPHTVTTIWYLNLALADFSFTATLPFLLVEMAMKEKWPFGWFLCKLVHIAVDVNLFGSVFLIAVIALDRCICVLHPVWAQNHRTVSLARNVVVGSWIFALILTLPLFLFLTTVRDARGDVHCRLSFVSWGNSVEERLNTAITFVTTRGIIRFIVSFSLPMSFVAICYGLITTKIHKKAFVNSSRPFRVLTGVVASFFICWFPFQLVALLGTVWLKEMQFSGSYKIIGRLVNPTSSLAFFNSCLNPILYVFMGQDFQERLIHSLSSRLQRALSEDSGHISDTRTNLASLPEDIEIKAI
Assay: [3H]LXA4 radioligand binding
Type: cell-based

Kd: 1.5 ± 0.6 nM
Structure (SMILES): CCCCC[C@H](O)/C=C/C=C\C=C\C=C\[C@@H](O)[C@@H](O)CCCC(=O)O [LXA4, 5(S),6(R),15(S)-trihydroxy7,9,13-trans-11-cis-eicosatetraenoic acid]
